Each structure is given as a SMILES string. “Also recorded” adds a separate entry of the source.

Experiment [1] has as its system MDA7, MDA-MB-231, SUM149, and SUM190. Description: Anchorage-independent growth in soft agar, four breast tumor models. Type of experiment: cell-based. Particulars: MDA7, MDA-MB-231, SUM149, SUM190; 28 days. As to the method: Assay for anchorage-independent growth in soft agar Cells (5×10^5) were suspended in 1× DMEM/HEPES, 10% heat-inactivated FBS, 0.13% bicarbonate, and 0.33% BBL agar. The cells were plated on 1% base agar plates (60 mm) containing 1× DMEM/HEPES, 10% heat-inactivated FBS, and 1% BBL agar. Fresh serum-containing medium was fed to the cells on 3-day intervals. The dishes were then incubated at 37° C. with 5% CO2 for 28 days. The colonies that grew in soft agar were photographed and counted. Data are expressed as the number of colonies formed per plate±S.E.M. and three plates were counted per cell line.

Experiment [2] relates to SUM149 and MDA-MB-231 cells. Put plainly: In vitro invasion of an artificial basement membrane. Type of experiment: cell-based, human. Particulars: 72 hours. Here is the method:
Effect of prodrugs on in vitro invasion of an artificial basement membrane by human breast cancer cells. SUM149 and MDA-MB-231 cells were trypsinized, resuspended in serum-supplemented medium, and counted. Cells were then washed 3 times with serum-free medium. Plates (6-well) compatible with transwell inserts with 8 μm pore-size polycarbonate filters (Fisher Scientific) were coated with Matrigel in cold serum-free DMEM/F12 at a final concentration of 0.7 mg/mL and held at room temperature for 40 minutes. Cells (in 500 μL serum-free medium) were added into the transwell inserts and incubated for 72 hours in the absence or presence 5 μM prodrug in DMSO (1% by volume). For a control, 10% FBS was used to evaluate the baseline extent of invasion of the different cell lines. After incubation, noninvading cells on the upper surface of the filter were removed with cotton swabs. Cells that had passed through the pores onto the lower side of the filter were fixed, stained with Hema-3 stain (Fisher Scientific), and quantified. The experiments were performed in triplicate and were repeated twice.

Experiment [3] relates to xenografts of MDA-MB-468 cells. Description: MDA-MB-468 xenograft in nude mice, intratumoral injection. The format is in vivo. Here is the method:
After 15 days mice were separated into three groups. Group 1 received PBS, group 2 received 20% hydroxypropyl-β-cyclodextrin (Trappsol) in PBS and group 3 received 10 mM of the compound in 20% Trappsol/PBS. Injections of 50 μL were made directly into the tumors. PBS is a phosphate buffered saline having pH7. Mice were treated daily for 5 days, given two days of rest and were treated for 5 days. On day 16 mice were treated and two hours later tumors were harvested, divided into two parts. The first part was frozen and the other was fixed in formalin for immunohistochemistry. Average tumor volume increased 2.3 and 2.5-fold in PBS and Trappsol/PBS vehicle controls, respectively.
Efficacy of Compound of Example 1 in animal models. […] Nu/nu Nude mice were injected in the mammary fat pad with 2×10^6 MDA-MB-468 cells suspended in matrigel. After 15 days mice were separated into three groups. Group 1 received PBS, group 2 received 20% hydroxypropyl-β-cyclodextrin (Trappsol) in PBS and group 3 received 10 mM of the compound of Example 1 in 20% Trappsol/PBS. PBS is a phosphate buffered saline with pH7. Injections of 50 μL were made directly into the tumors. Mice were treated daily for 5 days, given two days of rest and were treated for 5 days. On day 16 mice were treated and two hours later tumors were harvested, divided into two parts. The first part was frozen and the other was fixed in formalin for immunohistochemistry.

Experiment [4] has as its target T1, STAT1 (Homo sapiens, UniProt P42224).
T1 sequence (P42224 1-750): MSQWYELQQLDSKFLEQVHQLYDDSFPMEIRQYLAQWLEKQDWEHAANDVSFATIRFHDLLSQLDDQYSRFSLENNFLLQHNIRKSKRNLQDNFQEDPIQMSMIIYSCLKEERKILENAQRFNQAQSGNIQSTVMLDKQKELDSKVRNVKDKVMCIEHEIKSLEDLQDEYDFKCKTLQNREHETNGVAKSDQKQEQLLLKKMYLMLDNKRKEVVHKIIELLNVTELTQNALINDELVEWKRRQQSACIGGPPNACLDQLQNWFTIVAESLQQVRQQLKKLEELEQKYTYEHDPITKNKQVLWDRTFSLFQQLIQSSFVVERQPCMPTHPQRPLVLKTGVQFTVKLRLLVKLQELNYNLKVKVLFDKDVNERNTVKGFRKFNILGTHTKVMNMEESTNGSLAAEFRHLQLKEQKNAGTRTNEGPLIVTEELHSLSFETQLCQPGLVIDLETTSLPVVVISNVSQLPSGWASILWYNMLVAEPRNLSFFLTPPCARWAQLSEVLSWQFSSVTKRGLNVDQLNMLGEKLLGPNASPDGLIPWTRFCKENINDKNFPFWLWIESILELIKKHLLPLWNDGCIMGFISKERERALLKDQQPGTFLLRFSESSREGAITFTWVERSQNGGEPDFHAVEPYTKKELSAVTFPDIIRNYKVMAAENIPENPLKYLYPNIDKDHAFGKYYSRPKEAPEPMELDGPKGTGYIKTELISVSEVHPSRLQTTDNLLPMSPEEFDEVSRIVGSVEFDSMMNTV
Put plainly: IFNγ-stimulated STAT1 phosphorylation in MDA-MB-468 cells. The format is cell-based. More on the design: host or cells: MDA-MB-468 breast tumor cells. Particulars: for inhibition of Stat1 phosphorylation compared with Stat3 phosphorylation: 1.5 hr prodrug, then interferonγ 25 ng/mL 30 min; for fold less potent at inhibiting STAT1 than STAT3: MDA-MB-468 cells. As to the method:
Effect of Prodrug on the phosphorylation of STAT1 in MDA-MB-468 breast tumor cells. MDA-MB-468 cells were prepared as above. Prodrugs were prepared as 10 mM stock solutions in DMSO and aliquots were added to the culture media to give the correct final concentrations. After 1.5 hr interferonγ was added at 25 ng/mL. After 30 minutes cells were collected and lysed and proteins were separated by PAGE and transferred to PVDF filters as above. Filters were probed for phosphoTyr701 Stat 1 and total Stat1 using appropriate antibodies and similar detection procedures to those used for Stat3.

Experiment [5] has as its target T1, STAT1. Put plainly: IFNγ-stimulated phosphoStat1 in BT20 cells. The format is cell-based. More on the design: endogenous in cells; host or cells: BT20 breast tumor cells. The note with it: 5 μM, 2 h, then IFNγ 25 ng/mL, 20 and 45 min. Here is the method:
The compounds are selective for STAT3 over STAT1 in BT20 breast tumor cells. BT20 cells prepared as above and were treated with 5 μM of the compound of Example 1 for two hours then were treated with 25 ng/mL of interferon γ (IFNγ). […] (FIG. 4, bottom panel).

For `C/C(=C\C(=O)N[C@H]1CCc2cccc3c2N(C1=O)[C@H](C(=O)N[C@H](C)CCC(N)=O)C3)c1ccc(C(F)(F)P(=O)(OCOC(=O)C(C)(C)C)OCOC(=O)C(C)(C)C)cc1` [Example 1, (2E)-3-[4-[[bis[(2,2-dimethyl-1-oxopropoxy)methoxy]phosphinyl]difluoromethyl]phenyl]-but-2-enoyl-Haic-(R)-4-aminopentamide], the “colony formation in soft agar, four breast tumor models” value in experiment [1] is reported as “effectively inhibited colony formation”. The “invasion through the artificial basement membrane” value in experiment [2] (5 μM in DMSO) is recorded as “inhibited invasion”. In addition, the “effectiveness in invasion assay relative to Example 8” value in experiment [2] (5 μM) is “more effective”. The “growth of breast tumor xenograft” value in experiment [3] (10 mM in 20% Trappsol/PBS, 50 μL intratumoral) is on record as “inhibited; also recorded: inhibits the growth”. In addition, in experiment [3] (10 mM in 20% Trappsol/PBS, 50 μL intratumoral, vehicles 2.3 and 2.5-fold), the “increase in average tumor volume” value stood at 1.6 fold. Also, in experiment [3] (centers / interior of tumors), the “tumor center histology (cellularity, necrosis)” value is recorded as “necrosis; also recorded: notably acellular” and the “tumor vascularity (CD31 staining, microvessels)” value is given as “avascular”. Besides, the “Ki-67 staining of proliferating cells” value in experiment [3] (treated tumors) is reported as “decrease in Ki-67 staining”. Moreover, the “phosphorylation of STAT3 in treated tumors vs vehicle controls” value in experiment [3] (tumors harvested 2 h after last treatment) is “reduced; also recorded: strongly inhibited”. On STAT1 [4], the “inhibition of Stat1 phosphorylation compared with Stat3 phosphorylation” value is “less effective” and the “fold less potent at inhibiting STAT1 than STAT3” value is “about 10 fold”. Also, the “IFNγ-stimulated increase in phosphoStat1” value on STAT1 [5] is given as “did not inhibit”.

Turning to `CCCC[C@H](NC(=O)/C=C(\C)c1ccc(C(F)(F)P(=O)(OCOC(=O)C(C)(C)C)OCOC(=O)C(C)(C)C)cc1)C(=O)N1C[C@H]2CC2[C@H]1C(=O)N[C@@H](CCC(N)=O)[C@@H](C)OCc1ccccc1` (stereo partly drawn) [Example 16, (2E)-3-[4-[[bis[(2,2-dimethyl-1-oxopropoxy)methoxy]phosphinyl]difluoromethyl]phenyl]-but-2-enoyl-norleucinyl-(2S,3R,4S)-methanoprolinyl-(4S,5R)-4-amino-5-benzyloxyhexamide], at STAT1 [4], the “inhibition of Stat1 phosphorylation compared with Stat3 phosphorylation” value is reported as “less effective” and the “fold less potent at inhibiting STAT1 than STAT3” value is listed as “about 10 fold”.

The values above are taken from patent publication US8841257B2, “Inhibitors of STAT3 and uses thereof” (Board of Regents, The University of Texas System, priority 2009, dated 2014).
